Measured values from ChEMBL document CHEMBL3580624 (J Nat Prod, 2015).
Activity calls are given as the source filed them. The calls are words filed in the database; no cut-off is given here.

Experiments:
Prolyl endopeptidase = target: T1, Prolyl endopeptidase (Homo sapiens, UniProt P48147); experiment: Inhibition of human recombinant POP pre-incubated for 15 mins before Z-Gly-Pro-AMC substrate addition and further incubated for 1 hr by fluorimetry
T1 sequence (P48147 whole entry): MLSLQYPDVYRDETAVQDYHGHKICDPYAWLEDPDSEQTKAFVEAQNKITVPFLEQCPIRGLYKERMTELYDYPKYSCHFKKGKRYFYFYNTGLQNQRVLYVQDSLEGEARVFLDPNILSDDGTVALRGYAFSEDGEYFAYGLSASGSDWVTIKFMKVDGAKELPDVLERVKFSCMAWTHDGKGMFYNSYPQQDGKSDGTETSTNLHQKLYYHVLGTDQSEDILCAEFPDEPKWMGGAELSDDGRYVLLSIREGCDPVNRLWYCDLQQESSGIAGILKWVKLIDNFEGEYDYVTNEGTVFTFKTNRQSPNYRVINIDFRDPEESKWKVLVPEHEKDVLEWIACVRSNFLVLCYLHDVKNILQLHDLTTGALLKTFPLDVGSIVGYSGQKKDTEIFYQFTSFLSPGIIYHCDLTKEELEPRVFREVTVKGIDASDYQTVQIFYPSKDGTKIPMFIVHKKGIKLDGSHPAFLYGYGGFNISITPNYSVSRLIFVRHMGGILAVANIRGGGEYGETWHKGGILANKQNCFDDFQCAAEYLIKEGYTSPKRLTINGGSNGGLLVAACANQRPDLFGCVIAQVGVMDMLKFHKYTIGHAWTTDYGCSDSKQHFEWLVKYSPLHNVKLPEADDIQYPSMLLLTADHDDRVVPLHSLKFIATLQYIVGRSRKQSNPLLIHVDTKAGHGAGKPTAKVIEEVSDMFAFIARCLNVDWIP

Bos taurus = species on record: Bos taurus; experiment: Inhibition of bovine trypsin at 25 uM pre-incubated for 15 mins before Bz-Arg-AMC-HCl substrate addition and further incubated for 1 hr by fluorimetry
[1] = target: Chymotrypsinogen A (Bos taurus) (UniProt P00766); experiment: Inhibition of bovine alpha-chymotrypsin at 75 uM pre-incubated for 15 mins before Ala-Ala-Phe-AMC substrate addition and further incubated for 1 hr by fluorimetry

CC[C@H](C)[C@@H]1NC(=O)[C@@H]2CCCN2C(=O)[C@H](CC(C)C)NC(=O)CNC(=O)[C@H](CC(N)=O)NC(=O)[C@H](CCCNC(=N)N)NC(=O)[C@H]([C@@H](C)O)NC(=O)[C@@H]2CSSC[C@@H]3NC(=O)[C@H]([C@@H](C)O)NC(=O)CNC(=O)CNC(=O)[C@H](C(C)C)NC(=O)[C@@H]4CSSC[C@H](NC(=O)[C@H]([C@@H](C)O)NC(=O)[C@H](CSSC[C@H](NC1=O)C(=O)NCC(=O)N[C@@H](CCC(=O)O)C(=O)N[C@@H](CO)C(=O)N4)NC(=O)CNC(=O)[C@@H]1CCCN1C(=O)[C@H]([C@@H](C)O)NC(=O)[C@H](CC(N)=O)NC3=O)C(=O)N[C@@H]([C@@H](C)O)C(=O)N[C@@H](Cc1c[nH]c3ccccc13)C(=O)N1CCC[C@H]1C(=O)N[C@@H](C(C)C)C(=O)N2 (stereo in doubt; form 1)
IC50 (Prolyl endopeptidase): 9.57 µM

CC[C@H](C)[C@@H]1NC(=O)[C@@H]2CCCN2C(=O)[C@H](CC(C)C)NC(=O)CNC(=O)[C@H](CC(N)=O)NC(=O)[C@H](CCCNC(=N)N)NC(=O)[C@H]([C@@H](C)O)NC(=O)[C@@H]2CSSC[C@@H]3NC(=O)[C@H]([C@@H](C)O)NC(=O)CNC(=O)CNC(=O)[C@H](C(C)C)NC(=O)[C@@H]4CSSC[C@H](NC(=O)[C@H]([C@@H](C)O)NC(=O)[C@H](CSSC[C@H](NC1=O)C(=O)NCC(=O)N[C@@H](CCC(=O)O)C(=O)N[C@@H](CO)C(=O)N4)NC(=O)CNC(=O)[C@@H]1CCCN1C(=O)[C@H]([C@@H](C)O)NC(=O)[C@H](CC(N)=O)NC3=O)C(=O)N[C@@H]([C@@H](C)O)C(=O)N[C@@H](Cc1c[nH]c3ccccc13)C(=O)N1CCC[C@H]1C(=O)N[C@@H](C(C)C)C(=O)N2 (stereo in doubt; form 2) [listing 1 of 2 here]
IC50 (Prolyl endopeptidase): 8.6 µM

CC[C@H](C)[C@@H]1NC(=O)[C@@H]2CCCN2C(=O)[C@H](CC(C)C)NC(=O)CNC(=O)[C@H](CC(N)=O)NC(=O)[C@H](CCCNC(=N)N)NC(=O)[C@H]([C@@H](C)O)NC(=O)[C@@H]2CSSC[C@@H]3NC(=O)[C@H]([C@@H](C)O)NC(=O)CNC(=O)CNC(=O)[C@H](C(C)C)NC(=O)[C@@H]4CSSC[C@H](NC(=O)[C@H]([C@@H](C)O)NC(=O)[C@H](CSSC[C@H](NC1=O)C(=O)NCC(=O)N[C@@H](CCC(=O)O)C(=O)N[C@@H](CO)C(=O)N4)NC(=O)CNC(=O)[C@@H]1CCCN1C(=O)[C@H]([C@@H](C)O)NC(=O)[C@H](CC(N)=O)NC3=O)C(=O)N[C@@H]([C@@H](C)O)C(=O)N[C@@H](Cc1c[nH]c3ccccc13)C(=O)N1CCC[C@H]1C(=O)N[C@@H](C(C)C)C(=O)N2 (stereo in doubt; form 2) [listing 2 of 2 here]
inhibition (Bos taurus): inactive
inhibition [1]: inactive
